Test [1] concerns Bacillus subtilis NCIB3610. As to the kind of experiment: Pellicle (biofilm) formation in liquid biofilm-inducing medium. In kind it is cell-based. The following applies: for Biofilm-inhibition assay for B. subtilis: summary statement, concentration not given; for minimum concentration (MIC for Minimal Inhibitory Concentration) needed to prevent biofilm formation: FIG. 2B, complete inhibition of pellicle formation; for Inhibition of biofilm formation (FIG. 5): MSgg medium. As for the experimental part: (§1) Colony and pellicle formation. For colony formation on solid medium, cells were first grown to exponential growth phase in LB broth and 3 μl of culture were spotted onto solid MSgg medium containing 1.5% Bacto agar. The plates were incubated at 23° C. For pellicle formation in liquid medium, cells were grown to exponential phase and 6 μl of culture were mixed with 6 ml of medium in a 12-well plate (VWR). Plates were incubated at 23° C. Images of colonies and pellicles were taken using a SPOT camera (Diagnostic Instruments, USA).
Preparing conditioned medium. Cells were grown in LB medium to exponential phase. 0.1 ml of culture was added to 100 ml of MSgg medium and grown without shaking in a 500 ml beaker at 23° C. Next, pellicles and conditioned medium was collected by centrifugation at 8,000 rpm for 15 min. The conditioned medium (supernatant fluid) was removed and filtered through a 0.22 μm filter. The filtrates were stored at 4° C. For further purification the biofilm-inhibiting activity was fractionated on a C-18 Sep Pak cartridge using stepwise elution of 0% to 100% methanol with steps of 5%.
To investigate whether mature biofilms produce a factor that triggers biofilm disassembly, the effect of concentrated and partially purified extracts of conditioned medium on pellicle formation when added to fresh medium was assayed. To this end, conditioned medium from an eight-day-old culture was applied to a C18 Sep Pak column. Concentrated eluate from the column was then added to a freshly inoculated culture. […] Further purification of the factor was achieved by eluting the cartridge in step-wise fashion with increasing concentrations of methanol.
Next, the minimum concentration (MIC for Minimal Inhibitory Concentration) needed to prevent biofilm formation was determined.

The test system of a further test is S. aureus (strain SCO1). The test is described as follows: Biofilm formation on polystyrene, crystal violet staining. In kind it is cell-based, Staphylococcus aureus. The following applies: Staphylococcus aureus, read-out: % Inhibition relative to control (0%, <50%, 50-90%, >90%). How it is done: Crystal violet staining Crystal violet staining was done as described previously (O'Toole et al., Mol. […] Wells were stained with 500 μl of 1.0% Crystal-violet dye, rinsed twice with 2 ml double-distilled water and thoroughly dried.
The effect of D-amino acids on biofilm formation by other bacteria was examined. The pathogenic bacterium Staphylococcus aureus forms biofilms on plastic surfaces (Otto, Curr. Top. Microbiol. Immunol. 322:207 (2008)), which can be detected by washing away unbound cells and staining the bound cells with crystal violet. […] Additionally added to the wells were no amino acids (untreated), D-tyrosine (50 μM) or the D-amino acid mixture ([…] each). Cells bound to the polystyrene were visualized by washing away unbound cells and then staining with crystal violet.
For experiments reported in Table 1, the organism/strain was S.a. Harvard SCO1, the culture medium was TSB and the cell inoculation was at 2×10^9 cfu. For experiments reported in Table 2, the organism/strain was […], the culture medium was M63 and the cell inoculation was at 1.5×10^9 cfu. Biofilm was visualized using the crystal violet method. The data is shown below in Tables 1 and 2:
For experiments reported in Tables 3 and 4, the organism/strain was S.a. Harvard SCO1, the culture medium was TSB and the cell inoculation was at 2×10^9 cfu. Biofilm was visualized using the crystal violet method.

Test [2] has as its system Bacillus subtilis NCIB3610. As to the kind of experiment: Colony biofilm formation on solid MSgg medium. The following applies: 8.5 mM, 4 days. Type of test: cell-based. As for the experimental part:
as §1

In the next test the test system is Bacillus subtilis. As to the kind of experiment: Cell growth in MSgg medium with shaking. In kind it is cell-based. The note with it: 8.5 mM.
The subject of test [3] is Pseudomonas aeruginosa PA14. As to the kind of experiment: Biofilm formation on polystyrene, crystal violet staining. In kind it is cell-based. The note with it: Pseudomonas aeruginosa, read-out: % Inhibition relative to control (0%, <50%, 50-90%, >90%). How it is done:
Crystal violet staining Crystal violet staining was done as described previously (O'Toole et al., Mol. Microbiol. 30:295 (1998)) except that the cells were grown in 6-well plates. Wells were stained with 500 μl of 1.0% Crystal-violet dye, rinsed twice with 2 ml double-distilled water and thoroughly dried.
P. aeruginosa strain […] was grown in 12-well polystyrene plates for 48 hours at 30° C. in M63 medium containing glycerol (0.2%) and Casamino acids (20 μg/ml). Additionally added to the wells were no amino acids (untreated), D-tyrosine or the D-amino acid equimolar mixture. Cells bound to the polystyrene were visualized by washing away unbound cells and then staining with crystal violet. Wells were stained with 500 μl of 1.0% Crystal-violet dye, rinsed twice with 2 ml double-distilled water and thoroughly dried.
For experiments reported in Table 1, the organism/strain was S.a. Harvard SCO1, the culture medium was TSB and the cell inoculation was at 2×10^9 cfu. For experiments reported in Table 2, the organism/strain was […], the culture medium was M63 and the cell inoculation was at 1.5×10^9 cfu. Biofilm was visualized using the crystal violet method.

For test [4], the system named is matrix operons eps and yqxM. As to the kind of experiment: Expression of PyqxM-lacZ and PepsA-lacZ (β-galactosidase activity). In kind it is cell-based, Bacillus subtilis. The following applies: 8.5 mM, strains FC122 and FC5, MSgg, shaking. As for the experimental part: Assays of β-galactosidase activity. Cells were cultured in MSgg medium at 37° C. in a water bath with shaking 1 ml of culture was collected at each time point. β-galactosidase activity was determined as described previously (Chai et al., Mol. Microbiol. 67:254 (2008)).

For a further test, the system named is Pseudomonas aeruginosa. As to the kind of experiment: Attached single cells in well plate, Syto-9 staining. In kind it is cell-based. The following applies: Pseudomonas aeruginosa, 12 h, read-out: % Inhibition relative to control (0%, <50%, 50-90%, >90%). As for the experimental part:
An alternative method to observe biofilm formation on a 6 well plate with or without D-amino acids and using Syto-9 staining was as follows: Pseudomonas aeruginosa biofilms were washed twice with PBS and then fixed for at least an hour in 5% Glutaraldehyde in PBS. The fixed biofilms were then rinsed once again with PBS and soaked in 0.1% v/v Triton X-100 in PBS (PBST) for 15 minutes. The solution was exchanged with 0.1 nM […] (Invitrogen) in cold PBST and gently rocked in the dark for at least 15 minutes. Fluorescence images of the biofilms were captured with a Leica DMRX compound microscope using a Xe lamp and a K3 Leica filtercube. […] The amount of attached single cells was quantified using image J. The decrease in the amount of cells attached to the epoxy surfaces soaked with D-aa compared with the L-aa control was substantially more.

For another test, the system named is P.a. Harvard PA14. The test is described as follows: Biofilm (colony architecture) formation on defined M63 medium. Type of test: cell-based, Pseudomonas aeruginosa. The following applies: 500 μM. An excerpt:
Similarly to Bacillus subtilis, Pseudomonas aeruginosa forms a complex architecture on defined medium. These complex structures require the proper formation and assembly of the extra-cellular matrix. […] For these experiments, the organism/strain was P.a. Harvard PA14, the culture medium was M63 and the cell inoculation was at 1.5×10^9 cfu.

Where [5] appears, read: Table 3, 10 μM, 24 h/37° C., polystyrene, TSB.
Where [6] appears, read: Table 3, 100 μM, 24 h/37° C., polystyrene, TSB.
Where [7] appears, read: Table 3, 500 μM, 24 h/37° C., polystyrene, TSB.
[8] abbreviates: PA14, Table 2, 100 nM, 48 h/30° C., polystyrene, M63.
[9] abbreviates: Table 1, 100 nM, 24 h/37° C., polystyrene, TSB.
Setting [10] is: Table 1, 10 μM, 24 h/37° C., polystyrene, TSB.
Where [11] appears, read: Table 1, 100 μM, 24 h/37° C., polystyrene, TSB.
[12] abbreviates: Table 1, 500 μM, 24 h/37° C., polystyrene, TSB.

Read-outs that look alike come from different tables or passages of the source.

The values below come from patent US20130059096A1, “METHODS AND COATINGS FOR TREATING BIOFILMS” (President and Fellows of Harvard College, priority 2010, published 2013).

Consider `N[C@H](Cc1ccccc1)C(=O)O` [D-phenylalanine], for which the “Biofilm-inhibition assay for B. subtilis” value in test [1] was “not effective”. The inhibition at 10 µM with S. aureus (strain SCO1) (setting [5]) was below 50%. For the same compound, in the test on S. aureus (strain SCO1) (setting [6]), the inhibition at 100 µM was below 50%. For the same compound, the inhibition at 500 µM in the test with S. aureus (strain SCO1) (setting [7]) was above 90%.
Consider `CC(C)C[C@@H](N)C(=O)O` [D-leucine], for which, in test [2], the “Biofilm formation on solid MSgg medium (FIG. 6)” value was “inhibited biofilm formation”. Also, the “Effect on pellicle formation (FIG. 2A)” value in test [1] (8.5 mM, freshly inoculated culture, biofilm-inducing medium, 3 days) is reported as “significant inhibition of biofilm growth”. Besides, the “minimum concentration (MIC for Minimal Inhibitory Concentration) needed to prevent biofilm formation” value in test [1] is listed as “around 1 mM”. In test [1], the “Biofilm-inhibition assay for B. subtilis” value is “significant inhibition of biofilm growth”. For the same compound, the “Cell growth (FIG. 8)” value with Bacillus subtilis is reported as “substantially the same as the untreated sample”. The inhibition at 0.1 µM (in test [3] (setting [8]); in the test with S. aureus (strain SCO1) (setting [9])) was 0% throughout. The inhibition at 10 µM in test [3] (PA14, Table 2, 10 μM, 48 h/30° C., polystyrene, M63) turned out to be 0%; in the test with S. aureus (strain SCO1) (setting [10]) it was 0%. For the same compound, the inhibition at 100 µM in test [3] (PA14, Table 2, 100 μM, 48 h/30° C., polystyrene, M63) was determined as 0%; in the test on S. aureus (strain SCO1) (setting [11]), 0%. The inhibition at 500 µM is 0% in test [3] (PA14, Table 2, 500 μM, 48 h/30° C., polystyrene, M63) and 0% in the test with S. aureus (strain SCO1) (setting [12]). Moreover, in test [4], the “yqxM and eps expression (FIG. 9A, 9B)” value is “substantially the same as the untreated sample”.
Take `N[C@@H](Cc1ccc(O)cc1)C(=O)O` [L-tyrosine, reference compound]: the inhibition at 500 µM in the test on Pseudomonas aeruginosa worked out at 0%. Also, in the test with P.a. Harvard PA14, the “Biofilm formation on defined medium (FIG. 20)” value (from here on “Biofilm formation … (FIG. 20)”) is “did not”.
Turning to `O=C(O)[C@H]1CCCN1` [D-proline], in the test on S. aureus (strain SCO1) (setting [5]), the inhibition at 10 µM is below 50%. Also, in the test with S. aureus (strain SCO1) (setting [6]), the inhibition at 100 µM was below 50%. For the same compound, the inhibition at 500 µM in the test on S. aureus (strain SCO1) (setting [7]) is above 90%. For the same compound, the inhibition at 1000 µM in the test on S. aureus (strain SCO1) (Table 3, 1 mM, 24 h/37° C., polystyrene, TSB) was above 90%.
For the compound `C[C@@H](N)C(=O)O` [D-alanine], in test [1], the “Biofilm-inhibition assay for B. subtilis” value is listed as “not effective”.
Take `N[C@@H](Cc1c[nH]c2ccccc12)C(=O)O` [L-tryptophan, reference compound]: the “Biofilm formation … (FIG. 20)” value in the test on P.a. Harvard PA14 is “did not”. For the same compound, in test [1] (5 mM, 3 days), the “Inhibition of biofilm formation (FIG. 5)” value is on record as “Only the D-amino acids were active”.
On to `CSCC[C@@H](N)C(=O)O` [D-methionine], for which the “Inhibition of biofilm formation (FIG. 5)” value in test [1] (2 mM, 3 days) is “active in inhibiting biofilm formation”. In test [1], the “minimum concentration (MIC for Minimal Inhibitory Concentration) needed to prevent biofilm formation” value is recorded as “around 1 mM” and the “Biofilm-inhibition assay for B. subtilis” value is on record as “significant inhibition of biofilm growth”. Besides, in test [3] (setting [8]), the inhibition at 0.1 µM was 0%. The inhibition at 0.1 µM in the test on S. aureus (strain SCO1) (setting [9]) came out at 0%. Also, the inhibition at 10 µM in the test with S. aureus (strain SCO1) (setting [10]) was found to be 0%. Further, in the test with S. aureus (strain SCO1) (setting [11]), the inhibition at 100 µM was found to be 0%. In addition, the inhibition at 500 µM with S. aureus (strain SCO1) (setting [12]) worked out at 0%.
In the case of `CSCC[C@H](N)C(=O)O` [L-methionine, reference compound], the “Inhibition of biofilm formation (FIG. 5)” value in test [1] (5 mM, 3 days) is “Only the D-amino acids were active”.
Regarding `N[C@H](Cc1c[nH]c2ccccc12)C(=O)O` [D-tryptophan], in the test on P.a. Harvard PA14, the “Biofilm formation … (FIG. 20)” value is recorded as “inhibited biofilm formation”. Besides, the “Inhibition of biofilm formation (FIG. 5)” value in test [1] (0.5 mM, 3 days) is “active in inhibiting biofilm formation”. In test [1], the “minimum concentration (MIC for Minimal Inhibitory Concentration) needed to prevent biofilm formation” value was “around 1 mM” and the “Biofilm-inhibition assay for B. subtilis” value is recorded as “significant inhibition of biofilm growth”. In test [3] (PA14, 48 h), the inhibition at 0.1 µM was found to be 0%, the inhibition at 10 µM was below 50%, the inhibition at 100 µM lay within 50 to 90% and the inhibition at 500 µM was in the range of 50 to 90%. In the test on S. aureus (strain SCO1) (24 h), the inhibition at 0.1 µM worked out at 0%, the inhibition at 10 µM was 0%, the inhibition at 100 µM was below 50% and the inhibition at 500 µM was below 50%.

As usually defined, the inhibition is the percentage by which the read-out fell short of the control.
